What all share (experiment): NCI-60 cell line screen, 48 h
Assay [1] deals with HL-60(TB) leukemia.
The test system of assay [2] is ACHN renal.
Assay [3] relates to M14 melanoma.
For assay [4], the system named is COLO 205 colon.
Assay [5] deals with SK-MEL-5 melanoma.
The test system of assay [6] is UO-31 renal.
Assay [7] relates to T-47D breast.

The values that follow come from PubChem BioAssay (NCI).

Several values for one entry are separate records, joined by “and”; a condition that tells them apart may be missing. Identical values can stand only once.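 Exposure lasted 48 hours, with cells grown in 96-well plates and compounds tested at five concentrations. GI50: concentration for 50% inhibition of growth. TGI is the concentration that stops growth completely.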

Turning to `COc1ccc(-c2nc3ccccn3c2/C=C/C(=O)c2cc(OC)c(OC)c(OC)c2)cc1`, the GI50 was 34 µM in assay [1]; 3.26 µM in assay [2]; 9.8 µM in assay [3]; 3.5 µM in assay [4]; 2.72 µM in assay [5]; 1.31 µM in assay [6]. Moreover, the GI50 in assay [7] was 2.59 µM. In addition, the TGI in assay [1] is > 100 µM; in assay [2], > 100 µM; in assay [3], 28.6 µM; in assay [4], 13.5 µM; in assay [5], 14.3 µM; in assay [6] it was > 100 µM. For the same compound, in assay [7], the TGI was 14 µM.
With `COc1ccc2c(c1)n([O-])c1ccccc1[n+]2=O`, the GI50 in assay [1] is 45.2 µM and 4.54 µM; in assay [2], 16.3 µM and 5.24 µM; in assay [3] it was 62.1 µM and 7.9 µM. In addition, the TGI in assay [1] was > 100 µM; in assay [2], 41.5 µM and 47.3 µM; in assay [3] it was > 100 µM and 21.7 µM; in assay [4], > 100 µM and 74.7 µM; in assay [5] it was 98.5 µM and 39.8 µM; in assay [6] it was 46 µM and 36.6 µM. For the same compound, the TGI in assay [7] is > 100 µM and 22.6 µM.
Consider `COc1cc2c(cc1Nc1nc(Nc3ccsc3C(N)=O)c3cc[nH]c3n1)N(C(=O)CN(C)C)CCC2(C)C`, for which the GI50 was < 0.0025 µM in assay [1]; 2.56 µM in assay [2]; 1.43 µM in assay [3]; < 0.0025 µM in assay [4]; 0.797 µM in assay [5]; 1.09 µM in assay [6]. In assay [7], the GI50 is 3.08 µM. For the same compound, the TGI in assay [1] was 2.04 µM; in assay [2], 5.53 µM; in assay [3] it was 5.68 µM; in assay [4] it was 0.887 µM; in assay [5], 3.89 µM; in assay [6] it was 4.69 µM. In addition, the TGI in assay [7] was found to be 7.11 µM.
Consider `CN1CCN(c2ccc3nc(-c4ccc5nc(-c6ccc(OCCC(C)(C)C)cc6)[nH]c5c4)[nH]c3c2)CC1`, for which the GI50 in assay [1] is 4.71 µM; in assay [2] it was 9.2 µM; in assay [3] it was 2.39 µM; in assay [4], 12.9 µM; in assay [5], 12.7 µM; in assay [6], 21.3 µM. In addition, the GI50 in assay [7] is 14.2 µM. Also, the TGI was determined as 29.1 µM in assay [1]; 22.8 µM in assay [2]; 6.53 µM in assay [3]; 30 µM in assay [4]; 27.6 µM in assay [5]; 41.8 µM in assay [6]. This compound also yielded a TGI in assay [7] of 41.1 µM.
Consider `COC(=O)C1=C(C)NC(C)=C(C(=O)OC)C1/C=C(Cl)/C=C/c1ccccc1`, for which the GI50 in assay [1] is 17.8 µM; in assay [2], 24.6 µM; in assay [3], 16.2 µM; in assay [4], 30.9 µM; in assay [5] it was 17.2 µM; in assay [6], 23.9 µM. Moreover, the GI50 in assay [7] is 42.9 µM. Moreover, the TGI is 41.2 µM in assay [1]; 76 µM in assay [2]; 30.5 µM in assay [3]; 75.6 µM in assay [4]; 33.4 µM in assay [5]; > 100 µM in assay [6]. Also, the TGI in assay [7] is > 100 µM.
In the case of `Nc1nc(-c2ccccc2)nc2c1[n+]([O-])c1ccccc1[n+]2[O-]`, the TGI in assay [1], in assay [2], in assay [3], in assay [4], in assay [5] and in assay [6] was > 100 µM in each case. The TGI in assay [7] was > 100 µM.
As for `CCN(C(=O)c1cc(F)ccc1Oc1cncnc1N1CC2(CCN(CC3CCC(NS(=O)(=O)CC)CC3)CC2)C1)C(C)C` (stereo unspecified), the GI50 in assay [1], in assay [2], in assay [3], in assay [4], in assay [5] and in assay [6] was > 100 µM in each case. Further, the GI50 in assay [7] was > 100 µM. Besides, the TGI in assay [1], in assay [2], in assay [3], in assay [4], in assay [5] and in assay [6] was > 100 µM in each case. For the same compound, the TGI in assay [7] was > 100 µM.
Consider `O=C1c2ccccc2C(=O)c2c1ccc(C1C(=O)c3ccccc3C1=O)c2-c1c(C2C(=O)c3ccccc3C2=O)ccc2c1C(=O)c1ccccc1C2=O`, for which the TGI in assay [1], in assay [2], in assay [3], in assay [4], in assay [5] and in assay [6] was > 100 µM in each case. Also, the TGI in assay [7] was > 100 µM.
For the compound `Cc1cc(Cl)ccc1NC(=O)c1cc2ccccc2cc1O`, the GI50 in assay [1] is 0.435 µM; in assay [2], 0.583 µM; in assay [3] it was 0.657 µM; in assay [4], 6.46 µM; in assay [5], 0.373 µM; in assay [6], 0.405 µM. The GI50 in assay [7] is 0.852 µM. Besides, the TGI in assay [1] was 3.47 µM; in assay [2] it was > 100 µM; in assay [3], > 100 µM; in assay [4] it was 30.5 µM; in assay [5], 2.43 µM; in assay [6], > 100 µM. Moreover, the TGI in assay [7] is > 26.8 µM.
Consider `C=C1CCC2C(C)(C)CCC[C@]2(C)[C@H]1CO` (stereo partly specified), for which the GI50 in assay [1] was 15.8 µM; in assay [2], 97.9 µM; in assay [3], 71.8 µM; in assay [4] it was 42.1 µM; in assay [5] it was 68.2 µM; in assay [6], > 100 µM. Moreover, the GI50 in assay [7] is 41.7 µM. The TGI in assay [1], in assay [2], in assay [3], in assay [4], in assay [5] and in assay [6] was > 100 µM each time. For the same compound, the TGI in assay [7] was > 100 µM.
On to `C=C1CC/C=C(\C)C(=O)C[C@@H]2[C@@H]1CC2(C)C`, for which the TGI in assay [1] was found to be 0.507 µM; in assay [2] it was 8.67 µM; in assay [3], 19.7 µM; in assay [4], 3.87 µM; in assay [5], 10.5 µM; in assay [6], 7.64 µM. The TGI in assay [7] turned out to be 7.8 µM.
With `COc1ccc(/C(C#N)=C/c2ccc(OC)c(OC)c2)cc1`, the TGI in assay [1], in assay [2], in assay [3], in assay [4], in assay [5] and in assay [6] was > 100 µM throughout. For the same compound, in assay [7], the TGI was > 100 µM.
